Values quoted from earlier work, collected in patent publication US20090241222A1, “TANDEM REAPEAT DNA CONSTRUCTS PRODUCING PROTEINS THAT ATTACK PLANT PATHOGENIC VIRUSES, FUNGI, AND BACTERIA BY DISRUPTING TRANSCRIPTION FACTORS ESSENTIAL FOR REPLICATION THEREOF IN PLANTS” (priority 2008, published 2009).

System: Magnaporthe grisea
Details: PA treated plants; cited from earlier work

In the case of `O=C(O)c1ccccn1` [picolinic acid, 2-pyridine carboxylic acid], the “resistance against M. grisea” value is listed as “enhanced”.
